US6800481B1, “Stable macroscopic membranes formed by self-assembly of amphiphilic peptides and uses therefor” (priority 1992, dated 2004)
Where “and” joins values, the source holds several entries; their conditions need not be identical. Equal values may be shown once. Residues, ends and D or L forms follow the SMILES beside them.

What was measured:
[1] = Ions tested for effectiveness at inducing membrane formation; conditions of membrane formation; type: physicochemical
Description: Various metal cations were tested for effectiveness at inducing membrane formation from EAK16. […] The order of effectiveness of the monovalent cations appears to be Li^+>Na^+>K^+>Cs^+. Cs^+ produces the least amount of membranes and in addition, yields nonmembranous precipitates. The effectiveness of the monovalent cations appears to correlate inversely with the crystal radii of the ions: Li^+ (0.6 Å), Na^+ (0.95 Å), K^+ (1.33 Å), and Cs^+ (1.69 Å) (Pauling, 1960). A correlation is also seen with the hydrated radii of the ions: Li^+ (3.4 Å), Na^+ (2.76 Å), K^+ (2.32 Å), and Cs^+ (2.28 Å), and with the order of enthalpies of the monovalent cations (Pauling, 1960). It is not known at present if the monovalent metal cations act as a catalyst or if they are incorporated into the membrane. […] Thus, membrane formation appears to be independent of salt concentration over this wide range. Salt concentrations of less than 5 mM may also induce membrane formation, but at a slower rate. The initial concentration of the peptide is a significant factor in the size and thickness of the membrane formed. In general, the higher the peptide concentration, the higher the extent of membrane formation. Membranes can form from initial peptide concentrations as low as 0.5 mM or 1 mg/ml. However, membranes formed at higher initial peptide concentrations (about 10 mg/ml) are thicker and thus, likely to be stronger. Therefore, it is preferable when producing the membranes to add peptide to a salt solution, rather than to add salt to a peptide solution. Formation of the membranes is very fast, on the order of a few minutes, and seems to be irreversible (see below). The process is unaffected by pH≦12 (the peptides tend to precipitate out at pH above 12), and by temperature. The membranes can form at temperatures in the range of 4 to 90° C. Formation of the membranes is inhibited by the presence of divalent metal cations at concentrations equal to or greater than 100 μM, which promote unstructured aggregation rather than membrane formation, and by sodium dodecyl sulfate (SDS) at a concentration of at least 0.1%.

[2] = system: PC12; assay: Cell attachment to biopolymer sheets, normal or Ca++ and Mg++ free medium (Table 6); type: cell-based, rat; set-up: key: ++++: strong attachment; +++: moderate attachment; ++: weak attachment; +/−: little or no attachment
Description: (§1) Cells were pretreated in serum-free medium containing 30 μg/ml cyclohexamide for 2 hours before introduction to the peptide membranes. The cells used for the calcium and magnesium-free condition were pre-equilibrated in Ca^++ and Mg^++ free medium containing 5 mM EDTA for 15 minutes before introduction to the peptide membranes. Cells were allowed to attach to the peptide membranes for 30 minutes, 1 and 8 hours at 37° C. The attached cells were shaken for […] on a rotary rocker at 60 r.p.m., then scored under phase contrast microscopy.

[3] = system: PC12NGF; assay: as above; type: cell-based, rat; set-up: key: ++++: strong attachment; +++: moderate attachment; ++: weak attachment; +/−: little or no attachment
Description: as §1

[4] = physchem; type: physicochemical
Description: EAK16 peptide stock solutions were prepared at a concentration of approximately 0.57 mM (1 mg/ml) in water. The molecular weight of EAK16 is 1,760. […] The concentration was determined by the ninhydrin methods using internal controls.

[5] = Testing of peptides for macroscopic membrane formation (phase-contrast microscope, Congo Red staining); type: physicochemical
From the text: The effect of length and sequence on membrane formation was examined using several peptides (Table 1 and Example 3). […] Very long peptides, e.g., of about 200 amino acids, may encounter problems due to insolubility and intramolecular interactions which destabilize membrane formation. […] The optimal lengths for membrane formation will probably vary with the amino acid composition.
The EAK12 and EAK16 tested for membrane formation were acetylated and aminylated at both N- and C-terminal ends. […] The peptides were initially dissolved in water (5 mg/ml) or in 23% acetonitrile (10 mg/ml). A volume of 5-10 microliters of the dissolved peptides were applied to the DMEM medium, PBS or water. The formation of the membrane was first observed under a phase-contrast microscope and then, by the naked eye after staining with Congo Red.

[6] = system: 3T3; assay: Cell attachment to biopolymer sheets, normal or Ca++ and Mg++ free medium (Table 6); type: cell-based, mouse; set-up: key: ++++: strong attachment; +++: moderate attachment; ++: weak attachment; +/−: little or no attachment
Description: as §1

CC(=O)N[C@@H](C)C(=O)N[C@@H](CCC(=O)O)C(=O)N[C@@H](C)C(=O)N[C@@H](CCC(=O)O)C(=O)N[C@@H](C)C(=O)N[C@@H](CCCCN)C(=O)N[C@@H](C)C(=O)N[C@@H](CCCCN)C(=O)N[C@@H](C)C(=O)N[C@@H](CCC(=O)O)C(=O)N[C@@H](C)C(=O)N[C@@H](CCC(=O)O)C(=O)N[C@@H](C)C(=O)N[C@@H](CCCCN)C(=O)N[C@@H](C)C(=O)N[C@@H](CCCCN)C(N)=O [EAK16] (Ac-AEAEAKAKAEAEAKAK-NH2)
effect of divalent cations on membrane formation [1]: divalent cations primarily induce unstructured aggregates
effect of monovalent metal cations on membrane formation [1]: monovalent metal cations induce membrane formation
order of effectiveness of the monovalent cations [1]: Li^+>Na^+>K^+>Cs^+
effect of anions and organic ions on membrane formation ([1]; acetate, Cl^−, SO4^−2, PO4^−2, NH4^+ and Tris-Cl): not found to induce membrane formation
cell attachment ([2]; PC12, 30 min, Ca^++ & Mg^++ free, EDTA serum-free + Cyclohex): ++++
cell attachment ([2]; PC12, 30 min, Normal Ca^++ & Mg^++ serum-free + Cyclohex): ++++
cell attachment ([2]; PC12, 60 min, Ca^++ & Mg^++ free, EDTA serum-free + Cyclohex): ++++
cell attachment ([2]; PC12, 60 min, Normal Ca^++ & Mg^++ serum-free + Cyclohex): ++++
cell attachment ([3]; 30 min, Ca^++ & Mg^++ free, EDTA serum-free + Cyclohex): ++++
cell attachment ([3]; 30 min, Normal Ca^++ & Mg^++ serum-free + Cyclohex): ++++
cell attachment ([3]; 60 min, Ca^++ & Mg^++ free, EDTA serum-free + Cyclohex): ++++
cell attachment ([3]; 60 min, Normal Ca^++ & Mg^++ serum-free + Cyclohex): ++++
solubility ([4]; maximal solubility in water): 3000 µM and ~5000 µg/mL
solubility ([4]; solubility in 23% actonitrile): ≤ 6000 µM and ~10000 µg/mL
formation of macroscopic membranes ([5]; identical conditions, in words): could undergo self-assembly
membranous structure in Water ([5]; water): −
cell attachment ([6]; 3T3, 30 min, Ca^++ & Mg^++ free, EDTA serum-free + Cyclohex): ++++
cell attachment ([6]; 3T3, 30 min, Normal Ca^++ & Mg^++ serum-free + Cyclohex): ++++
cell attachment ([6]; 3T3, 60 min, Ca^++ & Mg^++ free, EDTA serum-free + Cyclohex): ++++
cell attachment ([6]; 3T3, 60 min, Normal Ca^++ & Mg^++ serum-free + Cyclohex): ++++
